Data reported in patent publication US20090012152A1, “Use of Tetramic Acid Derivatives for Controlling Insects from the Genus of the Plane Lice (Sternorrhyncha)” (Bayer CropScience Aktiengesellschaft, priority 2005, published 2009).

Experiments:
Assay type in all cases: in vivo
[1] = system: Bemisia argentifolii; experiment: Example 36: aubergine plants (Ryoma) treated against Bemisia argentifolii; details: nymphs on leaves, % a.i.: pymetrozine 0.0125, I-4 0.072, I-8 0.06
Method: In three replications, in each case four aubergine plants of the cultivar “Ryoma” are treated against Bemisia argentifolii. The application is carried out using a motor-operated knapsack sprayer. Here, the active compounds Example (I-4) and Example (I-8), in a tank mix with 0.2% a.i. of rapeseed oil methyl ester (500 EW), and the commercial standard pymetrozine (25 WP) are tested at the stated application rates. The application rate is 3200 l of water/ha.
Evaluation is carried out 13, 20 and 27 days after the treatment by rating the kill of the nymphs on the leaves.

[2] = system: Myzus persicae; experiment: Example 53: plum trees treated against Myzus persicae; details: population on shoots, g a.i./ha/m crown height: Actara 33.5, I-4 48
Method: In four replications, plum trees of the cultivar “Angeleno” of a height of about 2.8 m are treated against Myzus persicae. The application is carried out using a high-pressure sprayer. Here, the active compound Example (I-4) (100 OD), in the stated amount, is tested against the commercial standard Actara (25 WG), at the stated application rate. The application rate is 500 l of water/ha/crown height in m.
Evaluation is carried out 6, 9, 12, 20 days after the treatment by rating the kill of the population on the shoots.

[3] = system: Ceroplastes rubens; experiment: Example 12: satsuma trees treated against Ceroplastes rubens; details: 41 days after treatment; live animals counted, Henderson and Tilton; satsuma tree; % a.i.: buprofezin 0.025, I-4 0.0072
Method: In three replications, in each case one about 4-year-old satsuma tree of the cultivar “Nankan 20” is treated against Ceroplastes rubens. Here, the active compound Example (I-4) (240 SC) in a tank mix with 0.1% of rapeseed oil methyl ester (500 EW) at the stated application rate is tested against the commercial standard buprofezin (25 WP) at the stated application rate. The application is carried out using a motor-operated knapsack sprayer. Here, treatment is carried out using an application rate of 400 l of water/ha.
Evaluation is carried out before and 41 days after the treatment by counting the live animals. The efficacy in percent is then calculated according to Henderson and Tilton.

[4] = system: Pseudococcus citri; experiment: Example 26: citrus trees treated against Pseudococcus citri; details: 62 days after treatment, larvae on fruits, g a.i./ha/m crown height: Dursban 960, I-4 72
Method: In three replications, in plots of a size of about 20 m^2, citrus trees of the cultivar “Oro Nules” are treated against Pseudococcus citri. The application is carried out using a high-pressure sprayer. Here, the active compound Example (I-4) (240 SC), in a tank mix with 0.1% a.i. of rapeseed oil methyl ester (500 EW), is tested against the commercial standard Dursban (480 EC), at the stated application rates. The application rate is 2500 l of water/ha.
Evaluation is carried out 62 days after the treatment by rating the kill of the larvae on the fruits.

SMILES: CCOC(=O)OC1=C(c2cc(C)ccc2C)C(=O)NC12CCC(OC)CC2 (stereo not shown) [Example (I-4)]
- Kill (%) 13 d ([1]; 13 d after treatment): 99.6%
- Kill (%) 20 d ([1]; 20 d after treatment): 100%
- Kill (%) 27 d ([1]; 27 d after treatment): 97%
- Kill (%) 6 d ([2]; 6 d after treatment): 96.4%
- Kill (%) 9 d ([2]; 9 d after treatment): 99.7%
- Kill (%) 12 d ([2]; 12 d after treatment): 99.8%
- Kill (%) 20 d ([2]; 20 d after treatment): 99.9%
- Kill (%) 27 d ([2]; 27 d after treatment): 99.9%
- Effect (%) [3]: 98%
- Kill (%) 62 days [4]: 99%
